Reference: patent US12539292B2, “BRM targeting compounds and associated methods of use” (Arvinas Operations, Inc., priority 2018, dated 2026)
Where two headings read alike, the source gives them in different places.

Target: T1, BRM (Homo sapiens, UniProt P51531)
T1 construct: In-Cell Western Screen of BRM Degradation in SW1573 Cells; endogenous in cells; host or cells: SW1573
Test: In-cell Western screen of BRM degradation in SW1573 cells (Dmax and DC50)
Type: cell-based
Method in brief: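 BRM levels were read by LI-COR in-cell Western after two-channel (800/680 nm) immunostaining of fixed, Triton-permeabilised SW1573 cells.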

[1] = BRM degradation, read-out: BRM DC50
[2] = BRM degradation, SW1573 cells, read-out: DC50
[3] = BRM degradation, SW1573 cells, read-out: Dmax (% degraded)
[4] = SW1573, % degraded, when tested at the top concentration of between 0.3 and 10 μM, read-out: BRM Dmax (%)
[5] = BRM degradation, SW1573 cells, when tested at the top concentration of between 0.3 and 10 μM, read-out: Dmax (%) (% degraded)
[6] = BRM degradation, SW1573 cells, tested at the top concentration of between 0.3 and 10 μM, read-out: Dmax (%) (% degraded)

T1 sequence (P51531 whole entry): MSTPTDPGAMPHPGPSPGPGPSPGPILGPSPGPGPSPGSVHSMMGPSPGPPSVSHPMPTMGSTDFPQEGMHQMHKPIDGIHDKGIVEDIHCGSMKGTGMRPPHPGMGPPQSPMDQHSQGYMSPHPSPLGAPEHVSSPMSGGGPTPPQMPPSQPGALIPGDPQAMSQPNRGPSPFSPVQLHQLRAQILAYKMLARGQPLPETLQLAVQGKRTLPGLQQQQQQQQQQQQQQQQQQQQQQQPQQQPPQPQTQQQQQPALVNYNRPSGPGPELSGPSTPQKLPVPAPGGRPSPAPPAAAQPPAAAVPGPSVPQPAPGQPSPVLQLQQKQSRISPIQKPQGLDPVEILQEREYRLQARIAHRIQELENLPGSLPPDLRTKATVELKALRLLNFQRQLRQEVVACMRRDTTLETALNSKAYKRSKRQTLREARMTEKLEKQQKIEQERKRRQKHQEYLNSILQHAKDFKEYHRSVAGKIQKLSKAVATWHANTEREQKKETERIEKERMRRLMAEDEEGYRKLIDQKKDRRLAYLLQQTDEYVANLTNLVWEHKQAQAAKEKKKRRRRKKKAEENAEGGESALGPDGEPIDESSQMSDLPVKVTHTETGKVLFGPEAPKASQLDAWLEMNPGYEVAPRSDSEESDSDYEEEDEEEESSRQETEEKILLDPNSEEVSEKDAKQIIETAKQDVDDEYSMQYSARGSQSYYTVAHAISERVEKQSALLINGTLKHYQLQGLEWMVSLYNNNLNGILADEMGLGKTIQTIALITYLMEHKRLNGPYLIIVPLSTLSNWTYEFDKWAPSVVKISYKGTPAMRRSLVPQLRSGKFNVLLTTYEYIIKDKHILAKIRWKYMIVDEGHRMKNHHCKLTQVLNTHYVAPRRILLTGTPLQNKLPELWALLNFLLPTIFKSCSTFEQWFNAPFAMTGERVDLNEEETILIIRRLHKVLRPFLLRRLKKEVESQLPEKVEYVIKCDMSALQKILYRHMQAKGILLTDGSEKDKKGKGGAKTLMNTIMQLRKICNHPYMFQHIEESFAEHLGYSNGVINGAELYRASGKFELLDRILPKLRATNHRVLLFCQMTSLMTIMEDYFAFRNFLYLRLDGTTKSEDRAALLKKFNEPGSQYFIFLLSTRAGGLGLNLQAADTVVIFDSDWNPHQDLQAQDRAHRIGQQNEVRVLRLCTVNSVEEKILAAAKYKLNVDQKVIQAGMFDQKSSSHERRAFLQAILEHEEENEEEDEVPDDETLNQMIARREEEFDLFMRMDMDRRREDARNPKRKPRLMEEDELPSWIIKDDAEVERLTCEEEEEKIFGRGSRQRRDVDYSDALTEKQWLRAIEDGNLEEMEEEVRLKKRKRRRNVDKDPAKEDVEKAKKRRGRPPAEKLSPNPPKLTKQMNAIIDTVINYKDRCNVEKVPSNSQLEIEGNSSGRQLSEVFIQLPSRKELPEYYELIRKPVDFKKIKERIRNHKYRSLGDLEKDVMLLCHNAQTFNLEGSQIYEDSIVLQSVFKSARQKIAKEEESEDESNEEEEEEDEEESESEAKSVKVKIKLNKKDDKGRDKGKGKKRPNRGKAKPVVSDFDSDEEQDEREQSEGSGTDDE

Question: Cc1cc([C@H](C(=O)N2C[C@H](O)C[C@H]2C(=O)N[C@@H](C)c2ccc(-c3scnc3C)cc2)[C@H](C)COCCOc2cc(N3C4CCC3CN(c3cc(-c5ccccc5O)nnc3N)C4)ccn2)on1 [compound 514, (2S,4R)-1-((2R,3S)-4-(2-((4-(3-(3-amino-6-(2-hydroxyphenyl)pyridazin-4-yl)-3,8-diazabicyclo[3.2.1]octan-8-yl)pyridin-2-yl)oxy)ethoxy)-3-methyl-2-(3-methylisoxazol-5-yl)butanoyl)-4-hydroxy-N-((S)-1-(4-(4-methylthiazol-5-yl)phenyl)ethyl)pyrrolidine-2-carboxamide] was tested. Which DC50 [1] did it give?
Answer: The DC50 was greater than 30 nM.

Question: With Cc1ncsc1-c1ccc([C@H](C)NC(=O)[C@@H]2C[C@@H](O)CN2C(=O)[C@@H](c2cc(N3CCC4(CCN(CC5CCN(C[C@H]6C[C@H](Oc7cc(N8C9CCC8CN(c8cc(-c%10ccccc%10O)nnc8N)C9)ccn7)C6)CC5)CC4)CC3)no2)C(C)C)cc1 [compound 689, (2S,4R)-1-((2R)-2-(3-(9-((1-(((1r,3r)-3-((4-(3-(3-amino-6-(2-hydroxyphenyl)pyridazin-4-yl)-3,8-diazabicyclo[3.2.1]octan-8-yl)pyridin-2-yl)oxy)cyclobutyl)methyl)piperidin-4-yl)methyl)-3,9-diazaspiro[5.5]undecan-3-yl)isoxazol-5-yl)-3-methylbutanoyl)-4-hydroxy-N-((S)-1-(4-(4-methylthiazol-5-yl)phenyl)ethyl)pyrrolidine-2-carboxamide] as the compound, how does the DC50 [2] read?
Answer: The DC50 was less than 2.5 nM.

Question: What about the Dmax [3] of the same compound?
Answer: Its Dmax is greater than 75%.

Question: For Cc1ncsc1-c1ccc([C@H](C)NC(=O)[C@@H]2C[C@@H](O)CN2C(=O)[C@@H](c2cc(OCCN3CCC(O[C@H]4C[C@H](Oc5cc(N6C7CCC6CN(c6cc(-c8ccccc8O)nnc6N)C7)ccn5)C4)CC3)no2)C(C)C)nn1 [compound 504, (2S,4R)-1-((2R)-2-(3-(2-(4-((1r,3R)-3-((4-(3-(3-amino-6-(2-hydroxyphenyl)pyridazin-4-yl)-3,8-diazabicyclo[3.2.1]octan-8-yl)pyridin-2-yl)oxy)cyclobutoxy)piperidin-1-yl)ethoxy)isoxazol-5-yl)-3-methylbutanoyl)-4-hydroxy-N-((S)-1-(6-(4-methylthiazol-5-yl)pyridazin-3-yl)ethyl)pyrrolidine-2-carboxamide], which DC50 [1] is on record?
Answer: Its DC50 is greater than 30 nM.

Question: What does the source list for Cc1ncsc1-c1ccc([C@H](C)NC(=O)[C@@H]2C[C@@H](O)CN2C(=O)[C@@H](c2cc(OCCN3CCC(O[C@H]4C[C@H](Nc5cc(N6C7CCC6CN(c6cc(-c8ccccc8O)nnc6N)C7)ccn5)C4)CC3)no2)C(C)C)cc1 [compound 493, (2S,4R)-1-((2R)-2-(3-(2-(4-((1r,3R)-3-((4-(3-(3-amino-6-(2-hydroxyphenyl)pyridazin-4-yl)-3,8-diazabicyclo[3.2.1]octan-8-yl)pyridin-2-yl)amino)cyclobutoxy)piperidin-1-yl)ethoxy)isoxazol-5-yl)-3-methylbutanoyl)-4-hydroxy-N-((S)-1-(4-(4-methylthiazol-5-yl)phenyl)ethyl)pyrrolidine-2-carboxamide]?
Answer: DC50 [1]: < 2.5 nM; Dmax [4]: > 75%

Question: How did the DC50 [2] turn out when Cc1ncsc1-c1ccc([C@H](C)NC(=O)[C@@H]2C[C@@H](O)CN2C(=O)[C@H](c2cc(N3CCC(CN4CCC(O[C@H]5C[C@H](Oc6cc(N7C8CCC7CN(c7cc(-c9ccccc9O)nnc7N)C8)ccn6)C5)CC4)CC3)no2)C(C)C)cc1O [compound 700, (2S,4R)-1-((2S)-2-(3-(4-((4-((1r,3r)-3-((4-(3-(3-amino-6-(2-hydroxyphenyl)pyridazin-4-yl)-3,8-diazabicyclo[3.2.1]octan-8-yl)pyridin-2-yl)oxy)cyclobutoxy)piperidin-1-yl)methyl)piperidin-1-yl)isoxazol-5-yl)-3-methylbutanoyl)-4-hydroxy-N-((S)-1-(3-hydroxy-4-(4-methylthiazol-5-yl)phenyl)ethyl)pyrrolidine-2-carboxamide] was run?
Answer: The DC50 was greater than 30 nM.

Question: Cc1ncsc1-c1ccc([C@H](C)NC(=O)[C@@H]2C[C@@H](O)CN2C(=O)[C@@H](c2cc(OCCN3CCN(CC#CCn4cc(-c5cc(-c6ccccc6O)nnc5N)cn4)CC3)no2)C(C)C)cc1 [compound 113, (2S,4R)-1-((R)-2-(3-(2-(4-(4-(4-(3-amino-6-(2-hydroxyphenyl)pyridazin-4-yl)-1H-pyrazol-1-yl)but-2-yn-1-yl)piperazin-1-yl)ethoxy)isoxazol-5-yl)-3-methylbutanoyl)-4-hydroxy-N-((S)-1-(4-(4-methylthiazol-5-yl)phenyl)ethyl)pyrrolidine-2-carboxamide] was tested. Which DC50 [2] did it give?
Answer: The DC50 was less than 2.5 nM.

Question: And the Dmax [5]?
Answer: Its Dmax is greater than 75%.

Question: Cc1ncsc1-c1ccc([C@H](C)NC(=O)[C@@H]2C[C@@H](O)CN2C(=O)[C@@H](c2onc(OCCN3CCC(O[C@H]4C[C@H](Oc5cc(N6C7CCC6CN(c6cc(-c8ccccc8O)nnc6N)C7)ccn5)C4)CC3)c2Cl)C(C)C)cn1 [compound 223, (2S,4R)-1-((2R)-2-(3-(2-(4-((1r,3R)-3-((4-(3-(3-amino-6-(2-hydroxyphenyl)pyridazin-4-yl)-3,8-diazabicyclo[3.2.1]octan-8-yl)pyridin-2-yl)oxy)cyclobutoxy)piperidin-1-yl)ethoxy)-4-chloroisoxazol-5-yl)-3-methylbutanoyl)-4-hydroxy-N-((S)-1-(6-(4-methylthiazol-5-yl)pyridin-3-yl)ethyl)pyrrolidine-2-carboxamide] was tested. Which DC50 [2] did it give?
Answer: Its DC50 is 2.5 to 10 nM.

Question: And the Dmax [6]?
Answer: Its Dmax is greater than 75%.

Question: For Cc1ncsc1-c1ccc([C@H](C)NC(=O)[C@@H]2C[C@@H](O)CN2C(=O)[C@H](c2cc(OC/C=C/c3ccc(O[C@H]4C[C@H](Oc5cc(N6C7CCC6CN(c6cc(-c8ccccc8O)nnc6N)C7)ccn5)C4)cn3)no2)C(C)C)cn1 [compound 206, (2S,4R)-1-((2S)-2-(3-(((E)-3-(5-((1r,3S)-3-((4-(3-(3-amino-6-(2-hydroxyphenyl)pyridazin-4-yl)-3,8-diazabicyclo[3.2.1]octan-8-yl)pyridin-2-yl)oxy)cyclobutoxy)pyridin-2-yl)allyl)oxy)isoxazol-5-yl)-3-methylbutanoyl)-4-hydroxy-N-((S)-1-(6-(4-methylthiazol-5-yl)pyridin-3-yl)ethyl)pyrrolidine-2-carboxamide], which DC50 [2] is on record?
Answer: The DC50 was 10 to 30 nM.

Question: What about the Dmax [6] of the same compound?
Answer: The Dmax was greater than 75%.

Question: Which results are given for Cc1ncsc1-c1ccc([C@H](C)NC(=O)[C@@H]2C[C@@H](O)CN2C(=O)[C@@H](c2cc(N3CCC4(CCN(C[C@H]5C[C@H](Oc6cc(N7C8CCC7CN(c7cc(-c9ccccc9O)nnc7N)C8)ccn6)C5)CC4)CC3)no2)C(C)C)cc1 [compound 646, (2S,4R)-1-((2R)-2-(3-(9-(((1r,3R)-3-((4-(3-(3-amino-6-(2-hydroxyphenyl)pyridazin-4-yl)-3,8-diazabicyclo[3.2.1]octan-8-yl)pyridin-2-yl)oxy)cyclobutyl)methyl)-3,9-diazaspiro[5.5]undecan-3-yl)isoxazol-5-yl)-3-methylbutanoyl)-4-hydroxy-N-((S)-1-(4-(4-methylthiazol-5-yl)phenyl)ethyl)pyrrolidine-2-carboxamide]?
Answer: DC50 [2]: < 2.5 nM; Dmax [3]: > 75%

Question: With Cc1ncsc1-c1ccc([C@H](C)NC(=O)[C@@H]2C[C@@H](O)CN2C(=O)[C@@H](c2cc(OCCN3CCC(C(=O)N4CC(Oc5cc(N6C7CCC6CN(c6cc(-c8ccccc8O)nnc6N)C7)ccn5)C4)CC3)no2)C(C)C)cc1 [compound 405, (2S,4R)-1-((2R)-2-(3-(2-(4-(3-((4-(3-(3-amino-6-(2-hydroxyphenyl)pyridazin-4-yl)-3,8-diazabicyclo[3.2.1]octan-8-yl)pyridin-2-yl)oxy)azetidine-1-carbonyl)piperidin-1-yl)ethoxy)isoxazol-5-yl)-3-methylbutanoyl)-4-hydroxy-N-((S)-1-(4-(4-methylthiazol-5-yl)phenyl)ethyl)pyrrolidine-2-carboxamide] as the compound, how does the Dmax [4] read?
Answer: Its Dmax is greater than 75%.

Question: What about the DC50 (degradation of BRM, read-out: BRM DC50) of the same compound?
Answer: Its DC50 is less than 2.5 nM.

Question: Which results are given for Cc1ncsc1-c1ccc([C@H](CC#N)NC(=O)[C@@H]2C[C@@H](O)CN2C(=O)[C@@H](c2cc(N3CCC(CN4CCC(O[C@H]5C[C@H](Oc6cc(N7C8CCC7CN(c7cc(-c9ccccc9O)nnc7N)C8)ccn6)C5)CC4)CC3)no2)C(C)C)cc1 [compound 671, (2S,4R)-1-((2R)-2-(3-(4-((4-((1r,3r)-3-((4-(3-(3-amino-6-(2-hydroxyphenyl)pyridazin-4-yl)-3,8-diazabicyclo[3.2.1]octan-8-yl)pyridin-2-yl)oxy)cyclobutoxy)piperidin-1-yl)methyl)piperidin-1-yl)isoxazol-5-yl)-3-methylbutanoyl)-N-((S)-2-cyano-1-(4-(4-methylthiazol-5-yl)phenyl)ethyl)-4-hydroxypyrrolidine-2-carboxamide]?
Answer: DC50 [2]: < 2.5 nM; Dmax [3]: > 75%

Question: What does the source list for Cc1ncsc1-c1ccc(CNC(=O)[C@@H]2C[C@@H](O)CN2C(=O)[C@@H](NC(=O)COCCOCCOCCOCCOc2cc(N3C4CCC3CN(c3cc(-c5ccccc5O)nnc3N)C4)ccn2)C(C)(C)C)cc1 [compound 7, (2S,4R)-1-((2S)-17-((4-(3-(3-amino-6-(2-hydroxyphenyl)pyridazin-4-yl)-3,8-diazabicyclo[3.2.1]octan-8-yl)pyridin-2-yl)oxy)-2-(tert-butyl)-4-oxo-6,9,12,15-tetraoxa-3-azaheptadecanoyl)-4-hydroxy-N-(4-(4-methylthiazol-5-yl)benzyl)pyrrolidine-2-carboxamide]?
Answer: DC50 [2]: 2.5 to 10 nM; Dmax [5]: > 75%
